SMILES strings stand for the structures.

The source of these data is patent US20250000987A1, “RETINOIC ACID COMPOUND, PHARMACEUTICAL COMPOSITION THEREOF AND USE THEREOF” (Mastery Biotech CO., LTD., priority 2022, published 2025).

One test addresses SARS-COV-2 PLpro (Severe acute respiratory syndrome coronavirus 2, UniProt P0DTD1). The class given is biochemical.
The next test relates to SARS-COV-2. The settings on record: Example 2; 0.35 mg/kg intranasally twice daily, 3-day treatment; versus isotretinoin and liposome-encapsulated isotretinoin; FIG. 3.

In the case of `CC1=C(/C=C/C(C)=C/C=C/C(C)=C\C(=O)NCCCO[C@@H]2O[C@H](CO)[C@H](O)[C@H](O)[C@H]2O)C(C)(C)CCC1` [Galactose-modified isotretinoin, (2Z,4E,6E,8E)-3,7-dimethyl-N-(3-(((2R,3R,4S,5R,6R)-3,4,5-trihydroxy-6-(hydroxymethyl)tetrahydro-2H-pyran-2-yl)oxy)propyl)-9-(2,6,6-trimethylcyclohex-1-en-1-yl) nona-2,4,6,8-tetraenamide], on SARS-COV-2 PLpro (Example 1, 50 μM inhibiting agent, PLpro 0.9 μM, preincubation 30 minutes, 30° C., 300 seconds, mean±standard deviation), the “Inhibition percentage (%)” value is given as 34.21 ± 0.17%. Also, the “inhibiting the enzymatic activity of PLpro, comparison in words” value against SARS-COV-2 PLpro (versus isotretinoin or the individual components, FIG. 2, FIG. 11) was “more effective than isotretinoin only”. For the same molecule, the “TCID50 (lung virus titer)” value in the test with SARS-COV-2 is “significantly lower”.
